The values that follow come from ChEMBL document CHEMBL5576134, “Targeting Pancreatic Cancer with Novel Nicolaioidesin C Derivatives: Molecular Mechanism, In Vitro, and In Vivo Evaluations” (J Med Chem, 2024).

Activity calls are given as the source filed them. The rule behind the calls is not given here.

Experiment [1] can be described thus: Modulation of PI3K/AKT/mTOR signalling pathway in human MIA PaCa-2 cells in DMEM medium assessed as decrease in mTOR phosphorylation at 5 uM measured for 6 hrs by Western blot analysis. It is filed as cell-based. The following applies: filed as modulator.
The test system of experiment [2] is MIA PaCa-2. The experiment is described as follows: Preferential cytotoxicity against human MIA PaCa-2 cells in DMEM measured after 24 hrs by WST-8 cell counting analysis. It is filed as functional, cell-based. Particulars: MIA PaCa-2, 24 h.
Experiment [3] relates to PANC-1. The experiment in a line: Preferential cytotoxicity against human PANC-1 cells in DMEM measured after 24 hrs by WST-8 cell counting analysis. In kind it is functional, cell-based. Particulars: PANC-1, 24 h.
The nature of experiment [4]: Selectivity index, ratio of IC50 for preferential cytotoxicity against human PANC-1 cells in DMEM to PC50 for preferential cytotoxicity against human PANC-1 cells in nutrient-deprived medium. In kind it is functional.
For experiment [5], the system named is MIA PaCa-2. The experiment in a line: Preferential cytotoxicity against human MIA PaCa-2 cells in nutrient-deprived medium assessed as alteration in cell morphology by measuring cell rounding at 0.5 to 1 uM measured after 24 hrs by acridine orange and ethidium bromide dual fluorescent staining based microscopic analysis. In kind it is functional. Particulars: dose 0.5-1 µM.

For experiment [6], the system named is MIA PaCa-2. The experiment in a line: Antimetastatic activity in human MIA PaCa-2 cells in DMEM media assessed as reduction in colony area at 5 uM incubated for 24 hrs by crystal violet staining-based assay (reference value: 37%). Further details: scale not given: the % may be the effect or the level left. It is filed as functional.
Experiment [7] concerns MIA PaCa-2. The experiment in a line: Antimetastatic activity in human MIA PaCa-2 cells in DMEM media assessed as reduction in colony area at 10 uM incubated for 24 hrs by crystal violet staining-based assay. It is filed as functional. The arrangement: scale not given: the % may be the effect or the level left.
Experiment [8] relates to MIA PaCa-2. The experiment in a line: Induction of endoplasmic reticulum (ER) stress in human MIA PaCa-2 cells assessed as reduction in GRP78 expression at 5 uM measured after 6 hrs by Western blot analysis. In kind it is functional, cell-based.
Experiment [9] has as its system MIA PaCa-2. The experiment is described as follows: Induction of endoplasmic reticulum (ER) stress in human MIA PaCa-2 cells assessed as reduction in CHOP expression measured after 6 hrs by Western blot analysis. The following applies: dose 5.0 µM. In kind it is functional, cell-based.
Experiment [10] has as its system MIA PaCa-2. The experiment is described as follows: Induction of endoplasmic reticulum (ER) stress in human MIA PaCa-2 cells assessed as change in TRB3 level at 5 uM measured after 6 hrs by Western blot analysis. It is filed as functional, cell-based.
The nature of experiment [11]: Modulation of PI3K/AKT/mTOR signalling pathway in human MIA PaCa-2 cells in DMEM medium assessed as downregulation of AKT expression at 1 to 5 uM incubated for 24 hrs in presence of gemcitabine by Western blot analysis. Particulars: filed as modulator, dose 1-5 µM. It is filed as cell-based.
Experiment [12] concerns MIA PaCa-2. The experiment is described as follows: Antitumor activity against human MIA PaCa-2 cells xenografted in BALB/c/Nu/Nu mouse assessed as reduction in tumor volume at 20 mg/kg, ip administered 5 times a week for 4 weeks and measured on day 16. Particulars: time 16.0 day. It is filed as functional, organism-based.
In experiment [13] the test system is MIA PaCa-2. The experiment in a line: Antitumor activity against human MIA PaCa-2 cells xenografted in BALB/c/Nu/Nu mouse assessed as tumor volume at 60 mg/kg, ip administered 5 times a week for 4 weeks and measured on day 32 in presence of gemcitabine (reference value: 1417 mm3). It is filed as functional. The following applies: time 32 day.
In experiment [14] the test system is MIA PaCa-2. The experiment is described as follows: Antitumor activity against human MIA PaCa-2 cells xenografted in BALB/c/Nu/Nu mouse assessed as reduction in final tumor weight at 20 mg/kg, ip administered 5 times a week for 4 weeks (reference value: […]). It is filed as functional.
In experiment [15] the test system is MIA PaCa-2. The experiment in a line: Antitumor activity against human MIA PaCa-2 cells xenografted in BALB/c/Nu/Nu mouse assessed as reduction in number of blood vessels in skin at 60 mg/kg, ip administered 5 times a week for 4 weeks in presence of gemcitabine. It is filed as functional, organism-based.
In experiment [16] the test system is MIA PaCa-2. The experiment in a line: Induction of endoplasmic reticulum (ER) stress in human MIA PaCa-2 cells xenografted in BALB/c/Nu/Nu mouse assessed as downregulation of GRP78 expression in presence of gemcitabine by immunohistochemistry analysis. It is filed as functional, cell-based.

In the case of `CC(C)=CCCC1=CC[C@H](C(=O)c2c(O)cccc2O)[C@@H](c2cccc(F)c2F)C1` (relative stereo), the result in [1], in experiment [5], in [8], in experiment [10], in experiment [11] and in experiment [12] was Active. Also, the result in experiment [15] and in experiment [16] was Active. For the same molecule, the values for the IC50 in experiment [2] and in [3] were 60.2 µM and 9.2 µM, respectively. Also, the “Selectivity Index” value in [4] is on record as 40.8. Further, the Activity in experiment [6] is 14%; in experiment [7], 91%; in experiment [9], “Dose-Dependent Effect”; in experiment [13] it was 528 mm3; in experiment [14], 321 mg.
